From US8822479B2, “6-cyclylmethyl-and 6-alkylmethyl-substituted pyrazolepyrimidines” (Boehringer Ingelheim International GmbH, priority 2003, dated 2014)
Counter-ions that a name gives are not always drawn.

Tested on: not given
Conditions: not given

| SMILES | melting point |
| --- | --- |
| Cc1ccccc1-n1ncc2c(=O)[nH]c(CC3CCCC3)nc21 (as salt: sodium) | 181 °C |
| Cc1ccncc1-n1ncc2c(=O)[nH]c(CC3CCCC3)nc21 (as salt: sodium) | 206 °C |
| CCc1ccccc1-n1ncc2c(=O)[nH]c(CC3C=CCC3)nc21 (stereo not shown) (as salt: sodium) [Example 8, 6-(2-Cyclopenten-1-ylmethyl)-1-(2-ethylphenyl)-1,5-dihydro-4H-pyrazolo[3,4-d]pyrimidin-4-one] | 146 °C |
| Cc1ccccc1-n1ncc2c(=O)[nH]c(CC3C=CCC3)nc21 (stereo not shown) (as salt: sodium) [Example 9, 6-(2-Cyclopenten-1-ylmethyl)-1-(2-methylphenyl)-1,5-dihydro-4H-pyrazolo[3,4-d]pyrimidin-4-one] | 179 °C |
| Cc1ccccc1-n1ncc2c(=O)[nH]c(CC3CCCCC3)nc21 (as salt: sodium) [Example 10, 6-Cyclohexylmethyl-1-(2-methylphenyl)-1,5-dihydro-4H-pyrazolo[3,4-d]pyrimidin-4-one] | 169 °C |
| O=c1[nH]c(CC2C=CCC2)nc2c1cnn2-c1ccccc1C(F)(F)F (stereo not shown) (as salt: sodium) [Example 14, 6-(2-Cyclopenten-1-ylmethyl)-1-[2-(trifluoromethyl)phenyl]-1,5-dihydro-4H-pyrazolo[3,4-d]pyrimidin-4-one] | 153 °C |

More lines, now with the values ahead:

| melting point | SMILES |
| --- | --- |
| 163 °C | O=c1[nH]c(CC2C=CCC2)nc2c1cnn2-c1ccccc1F (stereo not shown) (as salt: sodium) [Example 15, 6-(2-Cyclopenten-1-ylmethyl)-1-(2-fluorophenyl)-1,5-dihydro-4H-pyrazolo[3,4-d]pyrimidin-4-one] |
| 150 °C | O=c1[nH]c(CC2C=CCC2)nc2c1cnn2-c1ccccc1Cl (stereo not shown) (as salt: sodium) [Example 16, 6-(2-Cyclopenten-1-ylmethyl)-1-(2-chlorophenyl)-1,5-dihydro-4H-pyrazolo[3,4-d]pyrimidin-4-one] |
| 239 °C | O=c1[nH]c(CC2C=CCC2)nc2c1cnn2-c1ccccn1 (stereo not shown) (as salt: sodium) [Example 17, 6-(2-Cyclopenten-1-ylmethyl)-1-(2-pyridinyl)-1,5-dihydro-4H-pyrazolo[3,4-d]pyrimidin-4-one] |
| 182 °C | COc1ccccc1-n1ncc2c(=O)[nH]c(CC3C=CCC3)nc21 (stereo not shown) (as salt: sodium) [Example 18, 6-(2-Cyclopenten-1-ylmethyl)-1-(2-methoxyphenyl)-1,5-dihydro-4H-pyrazolo[3,4-d]pyrimidin-4-one] |
| 204 °C | CC(C)Cc1nc2c(cnn2-c2ccccc2Cl)c(=O)[nH]1 (as salt: sodium) [Example 40, 1-(2-Chlorophenyl)-6-(2-methylpropyl)-1,5-dihydro-4H-pyrazolo[3,4-d]pyrimidin-4-one] |
| 143 °C | CCC(CC)Cc1nc2c(cnn2-c2cnccc2C)c(=O)[nH]1 (as salt: sodium) [Example 41, 6-(2-Ethylbutyl)-1-(4-methylpyridin-3-yl)-1,5-dihydro-4H-pyrazolo[3,4-d]pyrimidin-4-one] |
| 206 °C | Cc1ccncc1-n1ncc2c(=O)[nH]c(CC3CCCCC3)nc21 (as salt: sodium) [Example 43, 6-Cyclohexylmethyl-1-(4-methylpyridin-3-yl)-1,5-dihydro-4H-pyrazolo[3,4-d]pyrimidin-4-one] |
| 132 °C | CCC(C)Cc1nc2c(cnn2-c2ccccc2C)c(=O)[nH]1 (racemic) (as salt: sodium) [Example 35, 6-(2-Methylbutyl)-1-(2-methylphenyl)-1,5-dihydro-4H-pyrazolo[3,4-d]pyrimidin-4-one] |
| 160 °C | Cc1ccccc1-n1ncc2c(=O)[nH]c(CC(C)C(F)(F)F)nc21 (racemic) (as salt: sodium) [Example 36, 1-(2-Methylphenyl)-6-(3,3,3-trifluoro-2-methylpropyl)-1,5-dihydro-4H-pyrazolo[3,4-d]pyrimidin-4-one] |
| 149 °C | CCC(C)Cc1nc2c(cnn2-c2cnccc2C)c(=O)[nH]1 (racemic) (as salt: sodium) [Example 39, 6-(2-Methylbutyl)-1-(4-methylpyridin-3-yl)-1,5-dihydro-4H-pyrazolo[3,4-d]pyrimidin-4-one] |

Molecular target: human PDE9A (Homo sapiens (Human), UniProt O76083)
Conditions: concentrations of up to 100 μM; cited from earlier work

human PDE9A, sequence (O76083 whole entry): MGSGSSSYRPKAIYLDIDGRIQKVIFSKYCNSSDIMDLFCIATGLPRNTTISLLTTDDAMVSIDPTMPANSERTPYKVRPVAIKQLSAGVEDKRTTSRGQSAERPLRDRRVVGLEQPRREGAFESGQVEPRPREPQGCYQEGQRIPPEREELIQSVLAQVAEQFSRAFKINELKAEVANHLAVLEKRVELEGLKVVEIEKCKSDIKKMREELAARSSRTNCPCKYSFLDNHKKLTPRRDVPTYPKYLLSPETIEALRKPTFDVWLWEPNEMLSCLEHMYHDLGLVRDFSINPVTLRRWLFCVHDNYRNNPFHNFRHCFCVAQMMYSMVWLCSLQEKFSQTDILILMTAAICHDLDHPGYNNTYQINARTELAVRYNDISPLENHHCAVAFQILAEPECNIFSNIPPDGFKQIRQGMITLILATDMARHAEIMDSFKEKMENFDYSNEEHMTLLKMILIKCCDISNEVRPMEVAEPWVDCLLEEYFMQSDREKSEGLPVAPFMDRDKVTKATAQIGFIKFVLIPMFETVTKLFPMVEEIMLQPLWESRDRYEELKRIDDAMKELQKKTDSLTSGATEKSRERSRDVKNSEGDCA

| SMILES | inhibition on the isolated enzyme |
| --- | --- |
| CC(C)Cn1c(=O)n(C)c(=O)c2[nH]cnc21 [IBMX] | no inhibition |
| CC(=O)Nc1ccc(-c2c[nH]c(=O)cn2)cc1 [SKF94120] | no inhibition |
| OCCN(CCO)c1nc(N2CCCCC2)c2nc(N(CCO)CCO)nc(N3CCCCC3)c2n1 [dipyridamole] | no inhibition |
| COc1ccc(C2CNC(=O)C2)cc1OC1CCCC1 (stereo not shown) [rolipram] | no inhibition |
| CCOC(=O)C1=C[C@]2(CC)CCCN3CCc4c(n1c1ccccc41)[C@@H]32 [vinpocetine] | no inhibition |

Molecular target: Murine PDE9A (Mus musculus (Mouse), UniProt O70628)
Conditions: concentrations below 200 μM; cited from earlier work

Murine PDE9A, sequence (O70628 whole entry): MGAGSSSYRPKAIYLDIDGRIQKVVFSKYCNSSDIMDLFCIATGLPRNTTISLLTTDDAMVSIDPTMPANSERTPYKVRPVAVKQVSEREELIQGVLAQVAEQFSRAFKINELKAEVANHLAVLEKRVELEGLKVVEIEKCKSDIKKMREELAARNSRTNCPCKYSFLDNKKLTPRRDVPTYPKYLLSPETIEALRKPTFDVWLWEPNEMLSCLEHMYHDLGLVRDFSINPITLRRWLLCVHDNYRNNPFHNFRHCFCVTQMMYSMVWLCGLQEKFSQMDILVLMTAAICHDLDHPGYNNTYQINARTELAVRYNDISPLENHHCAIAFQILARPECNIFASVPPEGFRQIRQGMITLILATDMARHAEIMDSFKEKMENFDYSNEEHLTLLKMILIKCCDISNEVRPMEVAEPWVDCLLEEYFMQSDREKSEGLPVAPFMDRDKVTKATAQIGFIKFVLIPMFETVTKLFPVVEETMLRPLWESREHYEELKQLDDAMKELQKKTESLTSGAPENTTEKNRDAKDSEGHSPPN

| SMILES | inhibition of murine PDE9A |
| --- | --- |
| CC(C)Cn1c(=O)n(C)c(=O)c2[nH]cnc21 [IBMX] | not inhibited |
